These results are taken from ChEMBL document CHEMBL6103622 (J Med Chem, 2025).

Data set [1] has as its target T1, Macrophage colony-stimulating factor 1 receptor (Homo sapiens, UniProt P07333). Put plainly: Inhibition of CSF-1R (unknown origin).
Data set [2] concerns the target T2, Macrophage colony-stimulating factor 1 receptor (Mus musculus) (UniProt P09581).
T2 sequence (whole entry): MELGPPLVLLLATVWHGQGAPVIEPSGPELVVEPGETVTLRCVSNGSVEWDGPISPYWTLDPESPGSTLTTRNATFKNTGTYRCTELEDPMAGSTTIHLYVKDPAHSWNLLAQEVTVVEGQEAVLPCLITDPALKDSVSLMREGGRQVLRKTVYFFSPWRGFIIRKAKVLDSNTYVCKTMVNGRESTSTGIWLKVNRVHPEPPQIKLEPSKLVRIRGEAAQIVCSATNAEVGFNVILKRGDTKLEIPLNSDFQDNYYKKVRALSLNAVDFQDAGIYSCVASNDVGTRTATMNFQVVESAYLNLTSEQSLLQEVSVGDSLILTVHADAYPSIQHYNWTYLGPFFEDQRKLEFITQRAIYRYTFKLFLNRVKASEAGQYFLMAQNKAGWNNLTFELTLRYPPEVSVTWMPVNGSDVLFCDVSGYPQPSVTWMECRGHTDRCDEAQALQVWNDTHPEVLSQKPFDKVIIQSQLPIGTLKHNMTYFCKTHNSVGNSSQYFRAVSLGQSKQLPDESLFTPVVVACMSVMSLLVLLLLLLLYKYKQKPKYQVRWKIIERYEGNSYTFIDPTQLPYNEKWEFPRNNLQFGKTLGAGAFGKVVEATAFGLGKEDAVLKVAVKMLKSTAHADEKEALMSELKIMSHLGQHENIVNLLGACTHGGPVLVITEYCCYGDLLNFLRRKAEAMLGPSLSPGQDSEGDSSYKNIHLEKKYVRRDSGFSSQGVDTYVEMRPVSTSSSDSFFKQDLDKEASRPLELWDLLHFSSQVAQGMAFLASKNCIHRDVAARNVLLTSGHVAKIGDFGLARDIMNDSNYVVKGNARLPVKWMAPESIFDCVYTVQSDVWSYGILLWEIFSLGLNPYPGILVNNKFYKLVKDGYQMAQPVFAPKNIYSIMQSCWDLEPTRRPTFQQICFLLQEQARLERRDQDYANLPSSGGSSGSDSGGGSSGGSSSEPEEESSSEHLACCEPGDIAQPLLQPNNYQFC
The data set is described as follows: Inhibition of CSF-1R signaling pathway activation in female C57BL/6 mouse BMDM cells assessed as reduction in CSF-1R phosphorylation at Tyr723 residue at 100 nM preincubated with compounds for 4 hrs followed by M-CSF stimulation and measured after 30 mins by Western blot analysis. The class given is cell-based. The following applies: time 4.5 hrs. (In western blotting, separated proteins are transferred to a membrane and probed.)

In data set [3] the target is T2, Macrophage colony-stimulating factor 1 receptor (Mus musculus). The data set is described as follows: Inhibition of CSF-1R signaling pathway activation in female C57BL/6 mouse BMDM cells assessed as reduction in CSF-1R phosphorylation preincubated with compounds for 4 hrs followed by M-CSF stimulation and measured after 30 mins by Western blot analysis. The class given is cell-based. The following applies: dose 10-100 nM, time 4.5 hrs.

Data set [4] shares this target. Put plainly: Inhibition of CSF-1R signaling pathway activation in female C57BL/6 mouse BMDM cells assessed as reduction in STAT3 phosphorylation preincubated with compounds for 4 hrs followed by M-CSF stimulation and measured after 30 mins by Western blot analysis. The class given is cell-based. To be noted: dose 10-100 nM, time 4.5 hrs.
The target in data set [5] is T1, Macrophage colony-stimulating factor 1 receptor. Put plainly: Binding affinity to recombinant CSF-1R (unknown origin) assessed as association rate constant by SPR analysis. On the technique in general: In SPR one partner is held on a chip, and binding of the other changes the refractive index at the surface.
The test system of data set [6] is BMDM. Put plainly: Induction of repolarization of M2 like macrophage into M1 phenotype in female C57BL/6 mouse BMDM cells assessed as increase in Nos2 mRNA expression at 10 to 100 nM stimulated with mouse IL4/IL-13 for 24 hrs followed by compound addition and measured after 24 hrs by qPCR analysis. The class given is functional, cell-based. To be noted: dose 10-100 nM. For orientation: Quantitative PCR measures a nucleic acid by following its amplification.

In data set [7] the test system is BMDM. The data set is described as follows: Induction of repolarization of M2 like macrophage into M1 phenotype in female C57BL/6 mouse BMDM cells assessed as decrease in Rental mRNA expression at 10 to 100 nM stimulated with mouse IL4/IL-13 for 24 hrs followed by compound addition and measured after 24 hrs by qPCR analysis. The class given is functional, cell-based. To be noted: dose 10-100 nM.

Data set [8] concerns MC-38. Put plainly: Induction of apoptosis in mouse MC38 cells cocultured with condition medium of M2 macrophages assessed as early apoptotic cells at 100 nM by Annexin V/PI staining based flow cytometric analysis (reference value: 3.16 %). The class given is functional.
The test system of data set [9] is MC-38. The data set is described as follows: Inhibition of cell proliferation in mouse MC38 cells cocultured with condition medium of M2 macrophages at 10 to 100 nM incubated for 20 hrs by CCK8 assay. The following applies: dose 10-100 nM. The class given is functional, cell-based.
Data set [10] has as its system MC-38. Put plainly: Induction of apoptosis in mouse MC38 cells assessed as late apoptotic cells at 30 nM by Annexin V/PI staining based flow cytometric analysis (reference value: 0.85 %). The class given is functional.
Data set [11] concerns MC-38. The data set is described as follows: Induction of apoptosis in mouse MC38 cells assessed as late apoptotic cells at 100 nM by Annexin V/PI staining based flow cytometric analysis (reference value: 0.85 %). The class given is functional.
Data set [12] concerns the target BDNF/NT-3 growth factors receptor (Homo sapiens) (UniProt Q16620). The data set is described as follows: Inhibition of TRKB (unknown origin) at 1 uM.
Data set [13] is described as follows: AUC (0 to t) in Sprague-Dawley rat at 1 mg/kg, iv. The class given is ADME, organism-based. To be noted: in vivo.
The nature of data set [14]: Clearance in Sprague-Dawley rat at 1 mg/kg, iv. To be noted: in vivo. The class given is ADME, organism-based.
Data set [15] in a line: Terminal half-life in Sprague-Dawley rat at 10 mg/kg, po. The class given is ADME, organism-based. The following applies: in vivo, read-out: beta t1/2 (converted).
Data set [16] is described as follows: AUC (0 to t) in Sprague-Dawley rat at 10 mg/kg, po. The class given is ADME, organism-based. The following applies: in vivo.
A short description of data set [17]: Toxicity in C57BL/6 mouse model allografted with mouse MC38 cells assessed as body weight loss at 10 to 20 mg/kg, ip administered once daily for 14 days. The class given is organism-based. The following applies: in vivo, 336 h, dose 10-20 mg/kg, time 14 day.
Data set [18] deals with MC-38. Put plainly: Antitumor activity against mouse MC38 cells allografted in C57BL/6 mouse model assessed as reduction in tumor volume at 20 mg/kg, ip administered once daily for 14 days relative to control. To be noted: time 14 day. Details: scale not given: the % may be the effect or the level left. The class given is functional.
The test system of data set [19] is MC-38. The data set is described as follows: Antitumor activity against mouse MC38 cells allografted in C57BL/6 mouse model assessed as reduction in tumor weight at 10 mg/kg, ip administered once daily for 14 days relative to control. On the set-up: scale not given: the % may be the effect or the level left. The following applies: time 14 day. The class given is functional.

Data set [20] concerns MC-38. The data set is described as follows: Antitumor activity against mouse MC38 cells allografted in C57BL/6 mouse model assessed as downregulation of Arg1 mRNA expression in tumor at 10 to 20 mg/kg, ip administered once daily for 14 days by qPCR analysis. The class given is functional, organism-based. The following applies: dose 10-20 mg/kg, time 14.0 day.
For data set [21], the system named is MC-38. The data set is described as follows: Antitumor activity against mouse MC38 cells allografted in C57BL/6 mouse model assessed as downregulation of […] mRNA expression in tumor at 10 to 20 mg/kg, ip administered once daily for 14 days by qPCR analysis. The class given is functional, organism-based. To be noted: dose 10-20 mg/kg, time 14.0 day.
Data set [22] has as its system MC-38. Put plainly: Antitumor activity against mouse MC38 cells allografted in C57BL/6 mouse model assessed as downregulation of Mrc1 mRNA expression in tumor at 10 to 20 mg/kg, ip administered once daily for 14 days by qPCR analysis. The class given is functional, organism-based. To be noted: dose 10-20 mg/kg, time 14.0 day.
Data set [23] deals with MC-38. The data set is described as follows: Antitumor activity against mouse MC38 cells allografted in C57BL/6 mouse model assessed as upregulation of Nos2 mRNA expression in tumor at 10 to 20 mg/kg, ip administered once daily for 14 days by qPCR analysis. The class given is functional, organism-based. To be noted: dose 10-20 mg/kg, time 14.0 day.

Activity calls are given as the source filed them. The calls are words filed in the database; no cut-off is given here.

T1 sequence (P07333 whole entry): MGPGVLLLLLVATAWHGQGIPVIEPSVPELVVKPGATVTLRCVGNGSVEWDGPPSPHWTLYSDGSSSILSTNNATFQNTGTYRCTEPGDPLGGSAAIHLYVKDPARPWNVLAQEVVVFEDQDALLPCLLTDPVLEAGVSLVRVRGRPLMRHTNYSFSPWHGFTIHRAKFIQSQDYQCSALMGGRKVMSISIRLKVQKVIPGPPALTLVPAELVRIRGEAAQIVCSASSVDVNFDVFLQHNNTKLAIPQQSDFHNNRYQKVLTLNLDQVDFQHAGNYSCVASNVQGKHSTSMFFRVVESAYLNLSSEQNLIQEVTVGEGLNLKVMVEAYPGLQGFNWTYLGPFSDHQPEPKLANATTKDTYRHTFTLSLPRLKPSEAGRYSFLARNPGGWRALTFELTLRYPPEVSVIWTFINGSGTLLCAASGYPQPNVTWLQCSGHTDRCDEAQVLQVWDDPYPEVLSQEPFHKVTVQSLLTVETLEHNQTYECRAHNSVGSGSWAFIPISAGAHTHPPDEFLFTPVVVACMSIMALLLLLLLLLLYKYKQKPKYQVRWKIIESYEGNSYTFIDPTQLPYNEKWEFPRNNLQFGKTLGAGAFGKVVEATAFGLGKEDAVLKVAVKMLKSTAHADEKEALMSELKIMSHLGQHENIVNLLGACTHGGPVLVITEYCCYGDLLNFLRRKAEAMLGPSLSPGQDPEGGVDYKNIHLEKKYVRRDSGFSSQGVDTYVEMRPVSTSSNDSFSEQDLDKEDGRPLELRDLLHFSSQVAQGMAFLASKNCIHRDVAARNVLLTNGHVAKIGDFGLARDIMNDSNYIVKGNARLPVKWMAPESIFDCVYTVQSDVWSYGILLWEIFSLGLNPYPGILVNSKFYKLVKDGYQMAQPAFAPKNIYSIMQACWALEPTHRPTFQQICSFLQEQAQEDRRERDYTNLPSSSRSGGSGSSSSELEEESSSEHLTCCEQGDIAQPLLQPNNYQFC
Chain of BDNF/NT-3 growth factors receptor (Homo sapiens) (Q16620 32-822 limits assumed): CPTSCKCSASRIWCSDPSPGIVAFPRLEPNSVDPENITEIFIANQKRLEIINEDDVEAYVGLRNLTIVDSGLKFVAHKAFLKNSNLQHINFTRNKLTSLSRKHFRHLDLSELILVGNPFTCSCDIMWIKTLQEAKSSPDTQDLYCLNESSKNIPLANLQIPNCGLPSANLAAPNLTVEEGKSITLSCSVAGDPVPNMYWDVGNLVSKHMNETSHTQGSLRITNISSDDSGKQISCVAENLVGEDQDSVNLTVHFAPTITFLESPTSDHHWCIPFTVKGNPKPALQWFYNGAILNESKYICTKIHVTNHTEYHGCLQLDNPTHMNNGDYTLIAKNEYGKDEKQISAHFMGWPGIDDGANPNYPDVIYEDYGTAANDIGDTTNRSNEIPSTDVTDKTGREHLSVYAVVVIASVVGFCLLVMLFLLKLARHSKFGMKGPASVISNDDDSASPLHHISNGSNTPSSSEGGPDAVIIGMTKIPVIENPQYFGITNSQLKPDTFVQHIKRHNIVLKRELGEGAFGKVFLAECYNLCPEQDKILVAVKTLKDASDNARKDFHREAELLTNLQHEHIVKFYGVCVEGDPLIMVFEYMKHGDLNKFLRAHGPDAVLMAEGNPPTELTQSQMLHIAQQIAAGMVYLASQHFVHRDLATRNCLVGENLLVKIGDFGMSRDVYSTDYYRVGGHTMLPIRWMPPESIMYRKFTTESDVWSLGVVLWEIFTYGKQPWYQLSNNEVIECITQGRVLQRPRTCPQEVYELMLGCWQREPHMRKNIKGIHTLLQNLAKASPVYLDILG

Broadly, the IC50 is the concentration at which inhibition is half-maximal. By AUC(0-t) is commonly meant exposure summed from dosing to a finite time, without extrapolation to infinity. What is called clearance is the rate of elimination divided by the concentration. As to `Cc1nc(NC(=O)N[C@@H]2CCCC[C@H]2O)ccc1Oc1c[nH]c2ncc(Cl)cc12`, in [1], the half-inhibitory concentration (IC50) stood at 20.1 nM. The inhibition entry (in data set [2]; in the data set with MC-38 [9]; in data set [12]) was “Active” in each case. Further, the inhibition entry in data set [3] and in [4] was “Dose-dependent-effect” each time. Moreover, the Ka in data set [5] is 1.07 10^5/Ms. Moreover, the result in the data set on BMDM [6], in the data set with BMDM [7], in the data set with MC-38 [20], in the data set with MC-38 [21], in the data set on MC-38 [22] and in the data set on MC-38 [23] was Active. Moreover, the Activity was 19.91% with MC-38 [8]; 0.87% with MC-38 [10]; 1.01% in the data set with MC-38 [11]; “Non-toxic” in [17]; 54% in the data set with MC-38 [18]; 39% in the data set on MC-38 [19]. For the same molecule, the area under the curve AUC(0-t) in [13] turned out to be 526 ng·h/mL; in data set [16], 4170 ng·h/mL. In data set [14], this molecule came in with a clearance of 31.9 mL/min/kg. Also, in [15], the half-life was 1.86 h.
